The test system of one assay is L6. As to the kind of experiment: Cytotoxicity against L6 cells. Format: cell-based. The following applies: Rattus norvegicus.
Assay [1] concerns Plasmodium falciparum. The assay can be described thus: Antiparasitic activity against chloroquine, pyrimethamine-resistant Plasmodium falciparum K1 in erythrocytes by [3H]hypoxanthine uptake. Format: functional, organism-based.
Assay [2] has as its system Plasmodium falciparum. The assay can be described thus: Antiparasitic activity against chloroquine-sensitive Plasmodium falciparum NF54 in erythrocytes by [3H]hypoxanthine uptake. Format: functional, organism-based.
In assay [3] the test system is Plasmodium falciparum. The assay can be described thus: Relative activity against Plasmodium falciparum NF54 and K1 as IC50 ratio. The assay is classed as functional.

Turning to `O=C(Cc1ccc(Cl)cc1Cl)NCCCN1CCN(CCCNc2ccnc3cc(Cl)ccc23)CC1`, the IC50 (commonly the concentration at which inhibition is half-maximal) with L6 was 15.1 µM; in the assay on Plasmodium falciparum [1] it was 24 nM; in the assay with Plasmodium falciparum [2], 8 nM. For the same molecule, the “Ratio IC50” value with Plasmodium falciparum [3] stood at 0.34.
As for `COc1cccc(C(=O)NCCCN2CCN(CCCNc3ccnc4cc(Cl)ccc34)CC2)c1`, the IC50 in the assay with L6 was 9.3 µM; in the assay on Plasmodium falciparum [1], 28 nM; in the assay with Plasmodium falciparum [2], 10 nM. Further, the “Ratio IC50” value in the assay on Plasmodium falciparum [3] is given as 0.36.
In the case of `O=C(CCCCc1ccccc1)NCCCN1CCN(CCCNc2ccnc3cc(Cl)ccc23)CC1`, the IC50 in the assay on L6 came to 9.4 µM; in the assay on Plasmodium falciparum [1], 54 nM; in the assay with Plasmodium falciparum [2], 12 nM. For the same molecule, the “Ratio IC50” value in the assay on Plasmodium falciparum [3] is reported as 0.22.
In turn, `CCN(CC)CCCC(C)Nc1ccnc2cc(Cl)ccc12` (stereo not given) [CHLOROQUINE] gave an IC50 in the assay with L6 of 7.7 µM.
Regarding `O=C(CCCC1CCCCC1)NCCCN1CCN(CCCNc2ccnc3cc(Cl)ccc23)CC1`, the figures for the IC50 in the assay with Plasmodium falciparum [1] and in the assay with Plasmodium falciparum [2] were 272 nM and 156 nM, respectively. The “Ratio IC50” value with Plasmodium falciparum [3] stood at 0.57.
Take `O=C(NCCCN1CCN(CCCNc2ccnc3cc(Cl)ccc23)CC1)C(c1ccccc1)c1ccccc1`: the half-inhibitory concentration (IC50) amounted to 9.3 µM in the assay on L6, 106 nM in the assay with Plasmodium falciparum [1] and 25 nM with Plasmodium falciparum [2]. The “Ratio IC50” value with Plasmodium falciparum [3] is 0.24.
As for `CCCCCC(=O)NCCCN1CCN(CCCNc2ccnc3cc(Cl)ccc23)CC1`, the IC50 in the assay on Plasmodium falciparum [1] worked out at 900 nM; in the assay with Plasmodium falciparum [2], 338 nM. The “Ratio IC50” value in the assay on Plasmodium falciparum [3] is recorded as 0.38.
Turning to `O=C(NCCCN1CCN(CCCNc2ccnc3cc(Cl)ccc23)CC1)c1cccc(OC(F)(F)F)c1`, the IC50 was found to be 8.5 µM in the assay on L6, 15 nM in the assay with Plasmodium falciparum [1] and 12 nM with Plasmodium falciparum [2]. Besides, the “Ratio IC50” value in the assay on Plasmodium falciparum [3] turned out to be 0.8.
Taken in the same sequence, the figures for `O=C(Cc1c(Cl)cccc1Cl)NCCCN1CCN(CCCNc2ccnc3cc(Cl)ccc23)CC1` were 5.3 µM, 36 nM, 11 nM and 0.32.
Taken in the same sequence, the figures for `CCc1ccc(C(=O)NCCCN2CCN(CCCNc3ccnc4cc(Cl)ccc34)CC2)cc1` were 3.9 µM, 13 nM, 8 nM and 0.62.
For the molecule `CC(=O)CCC(=O)NCCCN1CCN(CCCNc2ccnc3cc(Cl)ccc23)CC1`, the IC50 is 11 µM in the assay with L6, 380 nM in the assay with Plasmodium falciparum [1] and 59 nM in the assay with Plasmodium falciparum [2]. Moreover, the “Ratio IC50” value in the assay with Plasmodium falciparum [3] was 0.15.
`O=C(NCCCN1CCN(CCCNc2ccnc3cc(Cl)ccc23)CC1)c1ccccc1C(=O)c1ccccc1`: the figures for the IC50 in the assay with L6, in the assay on Plasmodium falciparum [1] and with Plasmodium falciparum [2] were 3.2 µM, 17 nM and 10 nM, respectively. The “Ratio IC50” value in the assay with Plasmodium falciparum [3] is 0.59.
Take `CC(C)CC(=O)NCCCN1CCN(CCCNc2ccnc3cc(Cl)ccc23)CC1`: the values for the IC50 in the assay with Plasmodium falciparum [1] and in the assay with Plasmodium falciparum [2] were 78 nM and 13 nM, respectively. Also, the “Ratio IC50” value in the assay on Plasmodium falciparum [3] was 0.17.
For `O=C(NCCCN1CCN(CCCNc2ccnc3cc(Cl)ccc23)CC1)c1cccc(C(F)(F)F)c1`, the IC50 was 30.1 µM with L6, 53 nM in the assay on Plasmodium falciparum [1] and 37 nM in the assay with Plasmodium falciparum [2]. Moreover, the “Ratio IC50” value in the assay with Plasmodium falciparum [3] is listed as 0.68.
With `O=C(Cc1cccc2ccccc12)NCCCN1CCN(CCCNc2ccnc3cc(Cl)ccc23)CC1`, the figures for the IC50 in the assay on L6, in the assay with Plasmodium falciparum [1] and in the assay on Plasmodium falciparum [2] were 6.2 µM, 41 nM and 13 nM, respectively. Also, in the assay on Plasmodium falciparum [3], the “Ratio IC50” value is given as 0.32.
Take `O=C(NCCCN1CCN(CCCNc2ccnc3cc(Cl)ccc23)CC1)c1ccc(C(=O)c2ccccc2)cc1`: the IC50 in the assay on Plasmodium falciparum [1] was 3070 nM; in the assay with Plasmodium falciparum [2], 1540 nM. In addition, in the assay on Plasmodium falciparum [3], the “Ratio IC50” value came to 0.5.
On to `O=C(NCCCN1CCN(CCCNc2ccnc3cc(Cl)ccc23)CC1)c1ccc(Oc2ccccc2)cc1`, for which the IC50 was 1.4 µM with L6, 15 nM in the assay with Plasmodium falciparum [1] and 9 nM in the assay on Plasmodium falciparum [2]. Moreover, in the assay with Plasmodium falciparum [3], the “Ratio IC50” value was determined as 0.6.
On to `O=C(NCCCN1CCN(CCCNc2ccnc3cc(Cl)ccc23)CC1)c1ccc(Cl)c([N+](=O)[O-])c1`, for which the IC50 in the assay with L6 came to 11.3 µM; in the assay with Plasmodium falciparum [1] it was 43 nM; with Plasmodium falciparum [2], 20 nM. For the same molecule, the “Ratio IC50” value with Plasmodium falciparum [3] stood at 0.47.
On to `NC(=O)c1ccc(C(=O)NCCCN2CCN(CCCNc3ccnc4cc(Cl)ccc34)CC2)cc1`, for which the IC50 is 249 nM with Plasmodium falciparum [1] and 83 nM in the assay on Plasmodium falciparum [2]. For the same molecule, in the assay on Plasmodium falciparum [3], the “Ratio IC50” value came out at 0.33.
For the molecule `CC(C)=CC(=O)NCCCN1CCN(CCCNc2ccnc3cc(Cl)ccc23)CC1`, the IC50 with L6 is 30 µM; in the assay with Plasmodium falciparum [1], 65 nM; with Plasmodium falciparum [2], 23 nM. Moreover, in the assay with Plasmodium falciparum [3], the “Ratio IC50” value is recorded as 0.36.
Consider `O=C(CC1CCCCC1)NCCCN1CCN(CCCNc2ccnc3cc(Cl)ccc23)CC1`, for which the results for the IC50 in the assay on L6, in the assay with Plasmodium falciparum [1] and in the assay with Plasmodium falciparum [2] were 7.2 µM, 27 nM and 10 nM, respectively. Further, the “Ratio IC50” value with Plasmodium falciparum [3] came out at 0.37.
Taken in the same sequence, the figures for `O=C(NCCCN1CCN(CCCNc2ccnc3cc(Cl)ccc23)CC1)c1cc(F)cc(F)c1` were 11.6 µM, 26 nM, 10 nM and 0.39.
For `O=C(NCCCN1CCN(CCCNc2ccnc3cc(Cl)ccc23)CC1)c1cc(Cl)cc(Cl)c1`, in that order: 3 µM, 12 nM, 7 nM and 0.58.
Take `O=C(NCCCN1CCN(CCCNc2ccnc3cc(Cl)ccc23)CC1)c1ccc(F)c(F)c1`: the IC50 with L6 was 10 µM; in the assay on Plasmodium falciparum [1] it was 13 nM; with Plasmodium falciparum [2], 7 nM. Also, the “Ratio IC50” value in the assay on Plasmodium falciparum [3] was 0.54.
For `COc1ccc(C(=O)NCCCN2CCN(CCCNc3ccnc4cc(Cl)ccc34)CC2)cc1OC`, the values for the IC50 in the assay on Plasmodium falciparum [1] and with Plasmodium falciparum [2] were 447 nM and 36 nM, respectively. For the same molecule, the “Ratio IC50” value with Plasmodium falciparum [3] is reported as 0.08.
On to `CCOc1ccc(C(=O)NCCCN2CCN(CCCNc3ccnc4cc(Cl)ccc34)CC2)cc1`, for which the IC50 with L6 was determined as 5.3 µM; in the assay on Plasmodium falciparum [1], 12 nM; with Plasmodium falciparum [2] it was 8 nM. Besides, the “Ratio IC50” value in the assay with Plasmodium falciparum [3] amounted to 0.67.
As for `O=C(CCCc1ccccc1)NCCCN1CCN(CCCNc2ccnc3cc(Cl)ccc23)CC1`, the IC50 in the assay with L6 is 11 µM; with Plasmodium falciparum [1] it was 61 nM; with Plasmodium falciparum [2], 17 nM. In the assay on Plasmodium falciparum [3], the “Ratio IC50” value came to 0.28.
As to `O=C(CCCOc1ccccc1)NCCCN1CCN(CCCNc2ccnc3cc(Cl)ccc23)CC1`, the IC50 in the assay with L6 came out at 9.3 µM; with Plasmodium falciparum [1] it was 73 nM; in the assay on Plasmodium falciparum [2] it was 12 nM. For the same molecule, the “Ratio IC50” value in the assay on Plasmodium falciparum [3] amounted to 0.16.
Consider `Cc1ccccc1C(=O)NCCCN1CCN(CCCNc2ccnc3cc(Cl)ccc23)CC1`, for which the results for the IC50 in the assay with Plasmodium falciparum [1] and in the assay with Plasmodium falciparum [2] were 34 nM and 10 nM, respectively. In the assay on Plasmodium falciparum [3], the “Ratio IC50” value worked out at 0.29.
In the case of `O=C(CCCc1c[nH]c2ccccc12)NCCCN1CCN(CCCNc2ccnc3cc(Cl)ccc23)CC1`, the IC50 with L6 was 6.5 µM; with Plasmodium falciparum [1], 69 nM; with Plasmodium falciparum [2], 15 nM. Also, the “Ratio IC50” value in the assay on Plasmodium falciparum [3] is on record as 0.22.

(Values after ChEMBL document CHEMBL1147171, “Synthesis and antiplasmodial activity of new N-[3-(4-{3-[(7-chloroquinolin-4-yl)amino]propyl}piperazin-1-yl)propyl]carboxamides” (Bioorg Med Chem, 2007).)
